In paper PMC7998589, “A Radiobrominated Tyrosine Kinase Inhibitor for EGFR with L858R/T790M Mutations in Lung Carcinoma” (Pharmaceuticals, 2021):
One block for each compound: values may come before it.

Assays:
[1] = test system: H1975 (L858R/T790M double mutations EGFR); assay: Cellular uptake and blocking study, H1975; assay type: cell-based, human
Procedure: H1975 (1 × 10^5 cells/well), H441 (1 × 10^5 cells/well), and H3255 (2 × 10^5 cells/well) NSCLC cells were cultured in 6 well plates. Cells were incubated in medium with 10% FBS and 100 IU/mL penicillin–streptomycin at 37 °C in a humidified atmosphere with 5% CO2 for 24 h. […] The cells were dissolved by a 1.0 M NaOH aqueous solution (0.5 mL × 2). The cell lysate was transferred into a test tube. The radioactivity of ^77Br was measured by an auto well gamma counter at a 100–600 keV energy range. […] The BCA protein assay kit protocol was used to determine the protein concentration.

[2] = Biodistribution of double tracers in normal mice; assay type: in vivo; settings: ddY mice
Procedure: (§1) One month later, ^125I activity was determined.

[3] = test system: H1975 and H441 tumors; assay: Biodistribution of double tracers in tumor-bearing mice; assay type: in vivo, BALB/c nu/nu mice
Procedure: Six weeks old male ddY mice and four weeks old female BALB/c nu/nu mice were purchased from Japan SLC Inc. (Hamamatsu, Japan). Tumor-bearing mice were prepared by subcutaneous injection of cells suspended in 100 μL medium to the female BALB/c nu/nu mice. H1975 cells (5 × 10^6 cells) were implanted in the right shoulder, and H441 cells (3 × 10^6 cells) were implanted in the left shoulder. The tumor reached palpable size after post-inoculation 12 and 9 days for H1975 and H441, respectively.
as §1

[4] = set-up: method as in PMID 32599930; settings: ref [9]; cited from earlier work
[5] = test system: H1975 (EGFR L858R/T790M); assay: WST-8 cytotoxicity assay, H1975; assay type: cell-based; settings: Homo sapiens, NCI-H1975
Text: (§2) The data were statistically analyzed and presented as mean ± standard deviation (SD).

[6] = test system: H3255 (EGFR L858R); assay: WST-8 cytotoxicity assay, H3255; assay type: cell-based; settings: Homo sapiens, NCI-H3255
Text: as §2

[7] = test system: H441 (wild-type EGFR); assay: WST-8 cytotoxicity assay, H441; assay type: cell-based; settings: Homo sapiens, NCI-H441
Text: as §2

Biodistribution, Blood ([2]; 10 min after i.v. injection): 1.41 % ID/g | Biodistribution, Bone ([2]; 10 min after i.v. injection): 0.74 % ID/g | Biodistribution, Brain ([2]; 10 min after i.v. injection): 0.08 % ID/g | Biodistribution, Heart ([2]; 10 min after i.v. injection): 2.24 % ID/g | Biodistribution, Kidney ([2]; 10 min after i.v. injection): 9.66 % ID/g | Biodistribution, Large intestine ([2]; 10 min after i.v. injection): 0.94 % ID/g | Biodistribution, Liver ([2]; 10 min after i.v. injection): 19.21 % ID/g | Biodistribution, Lung ([2]; 10 min after i.v. injection): 3.61 % ID/g | Biodistribution, Muscle ([2]; 10 min after i.v. injection): 1.20 % ID/g | Biodistribution, Pancreas ([2]; 10 min after i.v. injection): 2.03 % ID/g | Biodistribution, Small intestine ([2]; 10 min after i.v. injection): 36.32 % ID/g | Biodistribution, Spleen ([2]; 10 min after i.v. injection): 2.73 % ID/g | Biodistribution, Stomach ([2]; 10 min after i.v. injection): 2.60 % ID/organ | Biodistribution, Blood ([2]; 1 h after i.v. injection): 0.17 % ID/g | Biodistribution, Bone ([2]; 1 h after i.v. injection): 0.16 % ID/g | Biodistribution, Brain ([2]; 1 h after i.v. injection): 0.01 % ID/g | Biodistribution, Heart ([2]; 1 h after i.v. injection): 0.30 % ID/g | Biodistribution, Kidney ([2]; 1 h after i.v. injection): 2.40 % ID/g | Biodistribution, Large intestine ([2]; 1 h after i.v. injection): 1.65 % ID/g | Biodistribution, Liver ([2]; 1 h after i.v. injection): 7.40 % ID/g | Biodistribution, Lung ([2]; 1 h after i.v. injection): 0.59 % ID/g | Biodistribution, Muscle ([2]; 1 h after i.v. injection): 0.23 % ID/g | Biodistribution, Pancreas ([2]; 1 h after i.v. injection): 0.86 % ID/g | Biodistribution, Small intestine ([2]; 1 h after i.v. injection): 40.99 % ID/g | Biodistribution, Spleen ([2]; 1 h after i.v. injection): 0.55 % ID/g | Biodistribution, Stomach ([2]; 1 h after i.v. injection): 1.64 % ID/organ | Biodistribution, Blood ([2]; 4 h after i.v. injection): 0.06 % ID/g | Biodistribution, Bone ([2]; 4 h after i.v. injection): 0.05 % ID/g | Biodistribution, Brain ([2]; 4 h after i.v. injection): 0.01 % ID/g | Biodistribution, Heart ([2]; 4 h after i.v. injection): 0.08 % ID/g | Biodistribution, Kidney ([2]; 4 h after i.v. injection): 0.75 % ID/g | Biodistribution, Large intestine ([2]; 4 h after i.v. injection): 81.54 % ID/g | Biodistribution, Liver ([2]; 4 h after i.v. injection): 6.45 % ID/g | Biodistribution, Lung ([2]; 4 h after i.v. injection): 0.16 % ID/g | Biodistribution, Muscle ([2]; 4 h after i.v. injection): 0.04 % ID/g | Biodistribution, Pancreas ([2]; 4 h after i.v. injection): 0.12 % ID/g | Biodistribution, Small intestine ([2]; 4 h after i.v. injection): 6.08 % ID/g | Biodistribution, Spleen ([2]; 4 h after i.v. injection): 0.20 % ID/g | Biodistribution, Stomach ([2]; 4 h after i.v. injection): 0.76 % ID/organ | Biodistribution, Blood ([2]; 24 h after i.v. injection): 0.13 % ID/g | Biodistribution, Bone ([2]; 24 h after i.v. injection): 0.09 % ID/g | Biodistribution, Feces ([2]; 24 h after i.v. injection): 71.54 % ID/organ | Biodistribution, Heart ([2]; 24 h after i.v. injection): 0.20 % ID/g | Biodistribution, Kidney ([2]; 24 h after i.v. injection): 0.54 % ID/g | Biodistribution, Large intestine ([2]; 24 h after i.v. injection): 0.52 % ID/g | Biodistribution, Liver ([2]; 24 h after i.v. injection): 1.40 % ID/g | Biodistribution, Lung ([2]; 24 h after i.v. injection): 0.14 % ID/g | Biodistribution, Muscle ([2]; 24 h after i.v. injection): 0.04 % ID/g | Biodistribution, Pancreas ([2]; 24 h after i.v. injection): 0.05 % ID/g | Biodistribution, Small intestine ([2]; 24 h after i.v. injection): 0.30 % ID/g | Biodistribution, Spleen ([2]; 24 h after i.v. injection): 0.13 % ID/g | Biodistribution, Stomach ([2]; 24 h after i.v. injection): 0.05 % ID/organ | Biodistribution, Urine ([2]; 24 h after i.v. injection): 1.63 % ID/organ | eliminated in feces ([2]; 24 h postinjection): up to 71% | Biodistribution, Blood ([3]; 1 h after i.v. injection): 0.50 % ID/g | Biodistribution, Bone ([3]; 1 h after i.v. injection): 0.42 % ID/g | Biodistribution, Brain ([3]; 1 h after i.v. injection): 0.04 % ID/g | Biodistribution, H441 tumor ([3]; 1 h after i.v. injection): 0.44 % ID/g | Biodistribution, H1975 tumor ([3]; 1 h after i.v. injection): 0.68 % ID/g | Biodistribution, Heart ([3]; 1 h after i.v. injection): 0.61 % ID/g | Biodistribution, Kidney ([3]; 1 h after i.v. injection): 2.64 % ID/g | Biodistribution, Large intestine ([3]; 1 h after i.v. injection): 27.65 % ID/g | Biodistribution, Liver ([3]; 1 h after i.v. injection): 30.32 % ID/g | Biodistribution, Lung ([3]; 1 h after i.v. injection): 1.62 % ID/g | Biodistribution, Muscle ([3]; 1 h after i.v. injection): 0.36 % ID/g | Biodistribution, Pancreas ([3]; 1 h after i.v. injection): 2.71 % ID/g | Biodistribution, Small intestine ([3]; 1 h after i.v. injection): 86.29 % ID/g | Biodistribution, Spleen ([3]; 1 h after i.v. injection): 1.80 % ID/g | Biodistribution, Stomach ([3]; 1 h after i.v. injection): 1.49 % ID/organ | Biodistribution, Blood ([3]; 6 h after i.v. injection): 0.17 % ID/g | Biodistribution, Bone ([3]; 6 h after i.v. injection): 0.22 % ID/g | Biodistribution, Brain ([3]; 6 h after i.v. injection): 0.02 % ID/g | Biodistribution, H441 tumor ([3]; 6 h after i.v. injection): 0.19 % ID/g | Biodistribution, H1975 tumor ([3]; 6 h after i.v. injection): 0.10 % ID/g | Biodistribution, Heart ([3]; 6 h after i.v. injection): 0.53 % ID/g | Biodistribution, Kidney ([3]; 6 h after i.v. injection): 1.05 % ID/g | Biodistribution, Large intestine ([3]; 6 h after i.v. injection): 95.22 % ID/g | Biodistribution, Liver ([3]; 6 h after i.v. injection): 10.16 % ID/g | Biodistribution, Lung ([3]; 6 h after i.v. injection): 0.37 % ID/g | Biodistribution, Muscle ([3]; 6 h after i.v. injection): 0.10 % ID/g | Biodistribution, Pancreas ([3]; 6 h after i.v. injection): 0.36 % ID/g | Biodistribution, Small intestine ([3]; 6 h after i.v. injection): 11.72 % ID/g | Biodistribution, Spleen ([3]; 6 h after i.v. injection): 0.25 % ID/g | Biodistribution, Stomach ([3]; 6 h after i.v. injection): 1.17 % ID/organ
SMILES: C=CC(=O)Nc1cc([125I])cc(Nc2nc(Nc3ccc(N4CCN(C(C)=O)CC4)cc3OC)ncc2C(F)(F)F)c1 [[^125I]ICO1686]
accumulation in H1975 versus H3255 and H441 ([1]; 4 h of incubation): significantly higher | reduction of uptake upon pretreatment with CO-1686 ([1]; H1975): ~60% | accumulation of radioactivity with pretreatment with excess CO-1686 ([1]; H1975, 4 h, CO-1686 100 µM blocking): 67.7 % dose/mg protein | accumulation of radioactivity (cell uptake) ([1]; H1975, 4 h incubation): 151.3 % dose/mg protein | effect of gefitinib on uptake ([1]; H1975, gefitinib 100 µM blocking): not significantly reduced | log P [4]: 1.84 ± 0.01

SMILES: C=CC(=O)Nc1cc(Br)cc(Nc2nc(Nc3ccc(N4CCN(C(C)=O)CC4)cc3OC)ncc2C(F)(F)F)c1 [compound 9, N-(3-{[2-({4-[4-acetylpiperazin-1-yl]-2-methoxyphenyl}amino)-5-(trifluoromethyl)pyrimidin-4-yl]amino}-5-bromophenyl)acrylamide]
IC50 [5]: 180 ± 60 nM | IC50 [6]: 200 ± 10 nM | IC50 [7]: 640 ± 40 nM
